Measurements reported in patent publication US5605901A, “Indane derivatives, processes for preparing the same and synthetic intermediate of the same” (Tanabe Seiyaku Co., Ltd., priority 1993, dated 1997).

Assays:
[1] = Action on rat glomerular nephritis (nephrotoxic serum-induced; protein excretion in urine); format: in vivo, rat (WKY strain); details: po, 30 mg/kg/10 ml orally twice a day for 8 days, NTS-induced nephritis, 24 hours urine collected after 7 days, read-out: Inhibition rate of excretion of protein in urine
Description: (Action on Rat Glomerular Nephritis)
Rabbits were immunized several times with a renal glomerular basement membrane fraction obtained from WKY strain rats and an adjuvant. Thereafter, blood was collected to obtain a nephrotoxic serum (NTS). This NTS was diluted by 50 times with physiological saline, and the diluted NTS was once administered intravenously to male WKY rats of 8 weeks old in a dose of 2.5 ml per 1 kg of body weight to induce nephritis. In normal group of rats, the same volume of physiological saline was intravenously administered.
In the experiment, one group consisted of 6 rats, and each compound to be tested was suspended in water with small amount of Tween 80 (trade name, produced by Nacalai Tesque Co.), and was orally administered to the test group of rats at a dose of 30 mg/kg/10 ml twice a day for 8 days. In normal group and control group of rats, the same volume of water was orally administered instead of the test compound. After 7 days, the rats were placed in metabolic cages and urine was collected for 24 hours. Concentrations of protein in urine were measured by the sulfosalicylic acid method to determine amounts of protein excreted in the urine (mg/day). The inhibition rate of excretion of protein were calculated by the following equation. [formula]

[2] = Action of protecting mouse from death induced by endotoxin; format: in vivo, mouse (ddy strain); details: 100 mg/kg orally, 30 min before endotoxin 100 mg/10 ml/kg i.p.; determined when control survival became 20 (about 20 hours)
Description: (Action of Protecting Mouse from Death Induced by Endotoxin)
To ddy strain male mice (one group: 10 mice) which had fasted for about 24 hours, each test sample dissolved or suspended in a 0.25% sodium carboxymethyl cellulose (CMC) aqueous solution was orally administered (100 mg/kg). After 30 minutes, 100 mg/10 ml/kg of endotoxin (lipopoly-saccharide) derived from Escherichia coli dissolved in physiological saline was administered intraperitoneally. When the survival rate of the control group to which the CMC aqueous solution had been orally administered became 20 (about 20 hours after administration of endotoxin), the survival rates of the groups to which the test samples had been administered were determined.

Compound | inhibition in vivo at 30 mg/kg [1] [%] | Survival rate [2] [%]
O=C(NCCC1Cc2ccc(-c3ccc(=O)[nH]n3)cc2C1)c1cccnc1 (stereo not drawn) [Example 110] | 91.8 | 
C=CC(=O)NCCC1Cc2ccc(-c3ccc(=O)[nH]n3)cc2C1 (stereo not drawn) [Example 105] | 60.2 | 
CCCN(C(=O)OCC(C)C)C1Cc2ccc(C3=NNC(=O)CC3)cc2C1 (stereo not drawn) [Example 35, 2-(N-propyl-N-isobutoxycarbonylamino)-5-[4,5-dihydropyridazin-3(2H)-on-6-yl]indane] |  | 80
O=C1CCC(c2ccc3c(c2)CC(NC(=O)c2ccccn2)C3)=NN1 (stereo not drawn) [Example 25] |  | 80
Nc1ncccc1C(=O)NCCC1Cc2ccc(-c3ccc(=O)[nH]n3)cc2C1 (stereo not drawn) [Example 129] | 98.9 | 
CCCN(C(=O)OCc1ccccc1)C1Cc2ccc(C3=NNC(=O)CC3)cc2C1 (stereo not drawn) [Example 37] |  | 60
CCCC(=O)NC1Cc2ccc(-c3ccc(=O)[nH]n3)cc2C1 (stereo not drawn) [Example 40, 2-butyrylamino-5-[pyridazin-3(2H)-on-6-yl]indane] | 72.4 | 
CCCC(=O)NC1Cc2ccc(C3=NNC(=O)CC3)cc2C1 (stereo not drawn) [Example 11, 2-butyrylamino-5-[4,5-dihydropyridazin-3(2H)-on-6-yl]indane] |  | 100
Cc1ncccc1C(=O)NCCC1Cc2ccc(-c3ccc(=O)[nH]n3)cc2C1 (stereo not drawn) [Example 127] | 93 | 
CCC(=O)NC1Cc2ccc(C3=NNC(=O)CC3)cc2C1 (stereo not drawn) [Example 12] |  | 90
O=C1CCC(c2ccc3c(c2)CC(NC(=O)c2cnccn2)C3)=NN1 (stereo not drawn) [Example 22] |  | 70
CCCOC(=O)NC1Cc2ccc(-c3ccc(=O)[nH]n3)cc2C1 (stereo not drawn) [Example 48] | 60.3 | 
C=CC(=O)NCCCCC1Cc2ccc(-c3ccc(=O)[nH]n3)cc2C1 (stereo not drawn) [Example 63] | 61.6 | 
O=C1CCC(c2ccc3c(c2)CC(NC(=O)c2cccnc2)C3)=NN1 (stereo not drawn) [Example 18] |  | 80
O=C1CCC(c2ccc3c(c2)CC(CCNC(=O)c2cccnc2)C3)=NN1 (stereo not drawn) [Example 148] | 88.9 | 
O=C(NCC1Cc2ccc(-c3ccc(=O)[nH]n3)cc2C1)c1cccnc1 (stereo not drawn) [Example 60] | 59.5 | 
O=C(NCCC1Cc2ccc(-c3ccc(=O)[nH]n3)cc2C1)c1ccncc1 (stereo not drawn) [Example 109] | 67.4 | 
C=CC(=O)NCCCC1Cc2ccc(-c3ccc(=O)[nH]n3)cc2C1 (stereo not drawn) [Example 106] | 81 | 
